In patent US12012374B2, “Agonists of ROR GAMMAt” (BRISTOL-MYERS SQUIBB COMPANY, priority 2019, dated 2024):

Target: T1, human RORgT (Homo sapiens, UniProt P51449)
T1 construct: expressed in transfected cells; host or cells: engineered Jurkat cells (Jurkat pEx/Gal/hRORγ CLBD/HYG pG5luc/blast)
T1 sequence (P51449 267-516): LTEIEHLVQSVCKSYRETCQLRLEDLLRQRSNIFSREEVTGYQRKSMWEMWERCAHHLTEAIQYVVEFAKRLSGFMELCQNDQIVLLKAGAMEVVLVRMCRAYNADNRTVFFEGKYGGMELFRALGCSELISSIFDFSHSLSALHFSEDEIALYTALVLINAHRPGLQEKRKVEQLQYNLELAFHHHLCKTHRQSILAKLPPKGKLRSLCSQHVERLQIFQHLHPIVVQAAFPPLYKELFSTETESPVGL
Assay: RORgT Gal4 Luciferase Reporter Gene Assay
Assay type: cell-based
Conditions: engineered Jurkat cells overexpressing RORgT (LBD or full length) fused with Gal4 Luc reporter; 18 hours incubation

SMILES | EC50
O=S(=O)(c1cccc(Cl)c1)C1(c2ccc(OCc3ccccc3)cc2)CCCC1 [Example 5, 1-(benzyloxy)-4-[1-(3-chlorobenzenesulfonyl)cyclopentyl]benzene] | 240 nM
O=S(=O)(c1ccc(F)cc1)C1(c2ccc(OCCc3ccccc3)cc2)CCCC1 [Example 4, 1-[1-(4-fluorobenzenesulfonyl)cyclopentyl]-4-(2-phenylethoxy)benzene] | 139 nM
O=C(O)[C@H]1CC[C@H](C(=O)N2CCC(c3ccc(OCc4c(Cl)cccc4Cl)cc3)(S(=O)(=O)c3ccccc3)C2)CC1 (stereo partly shown) [Example 24, (1r,4r)-4-[3-(benzenesulfonyl)-3-{4-[(2,6-dichlorophenyl)methoxy]phenyl}pyrrolidine-1-carbonyl]cyclohexane-1-carboxylic acid] | 552 nM
O=C(C1CCS(=O)(=O)C1)N1CCC(c2ccc(OCc3ccccc3)cc2)(S(=O)(=O)c2ccc(F)cc2)C1 (stereo not shown) [Example 19, 3-{3-[4-(benzyloxy)phenyl]-3-(4-fluorobenzenesulfonyl)pyrrolidine-1-carbonyl}-1λ^6-thiolane-1,1-dione] | 672 nM
O=C(O)[C@H]1CC[C@H](C(=O)N2CC[C@](c3ccc(OCc4c(Cl)cccc4Cl)cc3)(S(=O)(=O)c3ccccc3)C2)CC1 [Example 34, (1r,4r)-4-[(3R)-3-(benzenesulfonyl)-3-{4-[(2,6-dichlorophenyl)methoxy]phenyl}pyrrolidine-1-carbonyl]cyclohexane-1-carboxylic acid] | 275 nM
O=S(=O)(c1ccccc1)C1(c2ccc(OCC3CCCCC3)cc2)CCCC1 [Example 10, 1-[1-(benzenesulfonyl)cyclopentyl]-4-(cyclohexylmethoxy)benzene] | 328 nM
O=S(=O)(c1cccc(C(F)(F)F)c1)C1(c2ccc(OCc3ccccc3)cc2)CCCC1 [Example 8, 1-(benzyloxy)-4-{1-[3-(trifluoromethyl)benzenesulfonyl]cyclopentyl}benzene] | 382 nM
NC(=O)N1CCC(C(=O)N2CCC(c3ccc(OCc4c(Cl)cccc4Cl)cc3)(S(=O)(=O)c3ccccc3)C2)CC1 (stereo not shown) [Example 25, 4-[3-(benzenesulfonyl)-3-{4-[(2,6-dichlorophenyl)methoxy]phenyl}pyrrolidine-1-carbonyl]piperidine-1-carboxamide] | 267 nM
O=C(C1CCS(=O)(=O)CC1)N1CCC(c2ccc(OCc3ccccc3)cc2)(S(=O)(=O)c2cccc(C(F)(F)F)c2)C1 (stereo not shown) [Example 21, 4-{3-[4-(benzyloxy)phenyl]-3-[3-(trifluoromethyl)benzenesulfonyl]pyrrolidine-1-carbonyl}-1λ^6-thiane-1,1-dione] | 462 nM
NC(=O)[C@H]1CC[C@H](C(=O)N2CC[C@](c3ccc(OCc4c(Cl)cccc4C(F)(F)F)cc3)(S(=O)(=O)c3ccc(F)cc3)C2)CC1 [Example 45, (1r,4r)-4-[(3R)-3-(4-{[2-chloro-6-(trifluoromethyl)phenyl]methoxy}phenyl)-3-(4-fluorobenzenesulfonyl)pyrrolidine-1-carbonyl]cyclohexane-1-carboxamide] | 351 nM
O=C(C1CCS(=O)(=O)CC1)N1CCC(c2ccc(OCc3ccc(F)cc3Cl)cc2)(S(=O)(=O)c2ccccc2)C1 (stereo not shown) [Example 31, 4-[3-(benzenesulfonyl)-3-{4-[(2-chloro-4-fluorophenyl)methoxy]phenyl}pyrrolidine-1-carbonyl]-1λ^6-thiane-1,1-dione] | 343 nM
O=C(Cc1ccncc1)N1CCC(c2ccc(OCc3ccccc3)cc2)(S(=O)(=O)c2cccc(C(F)(F)F)c2)C1 (stereo not shown) [Example 22, 1-{3-[4-(benzyloxy)phenyl]-3-[3-(trifluoromethyl)benzenesulfonyl]pyrrolidin-1-yl}-2-(pyridin-4-yl)ethan-1-one] | 514 nM
O=C(C1CCS(=O)(=O)CC1)N1CCC(c2ccc(OCc3ccccc3Cl)cc2)(S(=O)(=O)c2ccccc2)C1 (stereo not shown) [Example 28, 4-[3-(benzenesulfonyl)-3-{4-[(2-chlorophenyl)methoxy]phenyl}pyrrolidine-1-carbonyl]-1λ^6-thiane-1,1-dione] | 187 nM
O=C1NC(=O)C(CC(=O)N2CCC(c3ccc(OCc4ccccc4)cc3)(S(=O)(=O)c3ccc(F)cc3)C2)S1 (stereo not shown) [Example 20, 5-(2-{3-[4-(benzyloxy)phenyl]-3-(4-fluorobenzenesulfonyl)pyrrolidin-1-yl}-2-oxoethyl)-1,3-thiazolidine-2,4-dione] | 810 nM
O=S(=O)(c1ccccc1)C1(c2ccc(OCCC3CC3)cc2)CCCC1 [Example 14, 1-[1-(benzenesulfonyl)cyclopentyl]-4-(2-cyclopropylethoxy)benzene] | 423 nM
O=S(=O)(c1ccc(Cl)cc1)C1(c2ccc(OCc3ccccc3)cc2)CCCC1 [Example 9, 1-(benzyloxy)-4-[1-(4-chlorobenzenesulfonyl)cyclopentyl]benzene] | 212 nM
O=S(=O)(c1ccccc1)C1(c2ccc(OCc3cccc(F)c3)cc2)CCCC1 [Example 11, 1-[1-(benzenesulfonyl)cyclopentyl]-4-[(3-fluorophenyl)methoxy]benzene] | 397 nM
O=C(Cn1ccnn1)N1CCC(c2ccc(OCc3ccccc3)cc2)(S(=O)(=O)c2ccc(F)cc2)C1 (stereo not shown) [Example 17, 1-{3-[4-(benzyloxy)phenyl]-3-(4-fluorobenzenesulfonyl)pyrrolidin-1-yl}-2-(1H-1,2,3-triazol-1-yl)ethan-1-one] | 526 nM

Stronger by EC50, values ahead:

EC50 | SMILES
18 nM | O=C(N1CC[C@](c2ccc(OCc3c(F)cccc3C(F)(F)F)cc2)(S(=O)(=O)c2ccccc2)C1)C1(O)CCS(=O)(=O)CC1 [Example 40, 4-[(3R)-3-(benzenesulfonyl)-3-(4-{[2-fluoro-6-(trifluoromethyl)phenyl]methoxy}phenyl)pyrrolidine-1-carbonyl]-4-hydroxy-1λ^6-thiane-1,1-dione]
58 nM | O=C(O)[C@H]1CC[C@H](C(=O)N2CC[C@](c3ccc(OCc4c(Cl)cccc4Cl)cc3)(S(=O)(=O)c3ccc(F)cc3)C2)CC1 [Example 35, (1r,4r)-4-[(3R)-3-{4-[(2,6-dichlorophenyl)methoxy]phenyl}-3-(4-fluorobenzenesulfonyl)pyrrolidine-1-carbonyl]cyclohexane-1-carboxylic acid]
47 nM | O=C(O)[C@H]1CC[C@H](C(=O)N2CC[C@](c3ccc(OCc4c(F)cccc4C(F)(F)F)cc3)(S(=O)(=O)c3ccc(F)cc3)C2)CC1 [Example 42, (1r,4r)-4-[(3R)-3-(4-{[2-fluoro-6-(trifluoromethyl)phenyl]methoxy}phenyl)-3-(4-fluorobenzenesulfonyl)pyrrolidine-1-carbonyl]cyclohexane-1-carboxylic acid]
32 nM | O=C(C1CCS(=O)(=O)CC1)N1CC[C@](c2ccc(OCc3c(Cl)cccc3Cl)cc2)(S(=O)(=O)c2ccccc2)C1 [Example 33, 4-[(3R)-3-(benzenesulfonyl)-3-{4-[(2,6-dichlorophenyl)methoxy]phenyl}pyrrolidine-1-carbonyl]-1λ^6-thiane-1,1-dione]
109 nM | O=C(C1CCS(=O)(=O)CC1)N1CCC(c2ccc(OCc3c(F)ccc(F)c3Cl)cc2)(S(=O)(=O)c2ccccc2)C1 (stereo not shown) [Example 27, 4-[3-(benzenesulfonyl)-3-{4-[(2-chloro-3,6-difluorophenyl)methoxy]phenyl}pyrrolidine-1-carbonyl]-1λ^6-thiane-1,1-dione]
39 nM | O=C(C1CCS(=O)(=O)CC1)N1CCC(c2ccc(OCc3c(F)cccc3Cl)cc2)(S(=O)(=O)c2ccccc2)C1 (stereo not shown) [Example 29, 4-[3-(benzenesulfonyl)-3-{4-[(2-chloro-6-fluorophenyl)methoxy]phenyl}pyrrolidine-1-carbonyl]-1λ^6-thiane-1,1-dione]
87 nM | O=S(=O)(c1ccccc1)C1(c2ccc(OCc3ccc(F)cc3)cc2)CCCC1 [Example 12, 1-[1-(benzenesulfonyl)cyclopentyl]-4-[(4-fluorophenyl)methoxy]benzene]
130 nM | O=S(=O)(c1ccccc1)C1(c2ccc(OCc3ccccc3)cc2)CCCC1 [Example 6, 1-[1-(benzenesulfonyl)cyclopentyl]-4-(benzyloxy)benzene]
77 nM | C[C@H](Oc1ccc([C@]2(S(=O)(=O)c3ccc(F)cc3)CCN(C(=O)C3CCS(=O)(=O)CC3)C2)cc1)c1ccccc1 [Example 37, 4-[(3R)-3-(4-fluorobenzenesulfonyl)-3-{4-[(1S)-1-phenylethoxy]phenyl}pyrrolidine-1-carbonyl]-1λ^6-thiane-1,1-dione]
14 nM | O=C(N1CC[C@](c2ccc(OCc3c(F)cccc3C(F)(F)F)cc2)(S(=O)(=O)c2ccc(F)cc2)C1)C1(O)CCS(=O)(=O)CC1 [Example 43, 4-[(3R)-3-(4-{[2-fluoro-6-(trifluoromethyl)phenyl]methoxy}phenyl)-3-(4-fluorobenzenesulfonyl)pyrrolidine-1-carbonyl]-4-hydroxy-1λ^6-thiane-1,1-dione]
46 nM | O=C(C1CCS(=O)(=O)CC1)N1CCC(c2ccc(OCc3c(Cl)cccc3Cl)cc2)(S(=O)(=O)c2ccccc2)C1 (stereo not shown) [Example 23, 4-[3-(benzenesulfonyl)-3-{4-[(2,6-dichlorophenyl)methoxy]phenyl}pyrrolidine-1-carbonyl]-1λ^6-thiane-1,1-dione]
88 nM | O=C(O)[C@H]1CC[C@H](C(=O)N2CC[C@](c3ccc(OCc4c(F)cccc4C(F)(F)F)cc3)(S(=O)(=O)c3ccccc3)C2)CC1 [Example 41, (1r,4r)-4-[(3R)-3-(benzenesulfonyl)-3-(4-{[2-fluoro-6-(trifluoromethyl)phenyl]methoxy}phenyl)pyrrolidine-1-carbonyl]cyclohexane-1-carboxylic acid]
28 nM | O=C(C1CCS(=O)(=O)CC1)N1CCC(c2ccc(OCc3c(F)cccc3C(F)(F)F)cc2)(S(=O)(=O)c2ccccc2)C1 (stereo not shown) [Example 30, 4-[3-(benzenesulfonyl)-3-(4-{[2-fluoro-6-(trifluoromethyl)phenyl]methoxy}phenyl)pyrrolidine-1-carbonyl]-1λ^6-thiane-1,1-dione]
